Reference: patent US11021493B2, “1,4-thiazine dioxide and 1,2,4-thiadiazine dioxide derivatives as beta-secretase inhibitors and methods of use” (AMGEN INC., priority 2016, dated 2021)

Key:
Cathepsin D (CatD) = Cathepsin D (CatD) (Homo sapiens (Human), UniProt P07339); assay: In vitro enzymatic Cathepsin D (CatD) FRET assay; format: biochemical; details: read-out: Cat D Enzyme IC50
BACE1 [1] = target: T1, BACE1 (Homo sapiens (Human), UniProt P56817); assay: In vitro BACE1 cell-based assay (Aβ40 in conditioned medium of cells stably expressing APP, HTRF); details: Aβ40 in conditioned media after 24 h incubation
Target sequence in this assay (P56817 46-501, species assumed): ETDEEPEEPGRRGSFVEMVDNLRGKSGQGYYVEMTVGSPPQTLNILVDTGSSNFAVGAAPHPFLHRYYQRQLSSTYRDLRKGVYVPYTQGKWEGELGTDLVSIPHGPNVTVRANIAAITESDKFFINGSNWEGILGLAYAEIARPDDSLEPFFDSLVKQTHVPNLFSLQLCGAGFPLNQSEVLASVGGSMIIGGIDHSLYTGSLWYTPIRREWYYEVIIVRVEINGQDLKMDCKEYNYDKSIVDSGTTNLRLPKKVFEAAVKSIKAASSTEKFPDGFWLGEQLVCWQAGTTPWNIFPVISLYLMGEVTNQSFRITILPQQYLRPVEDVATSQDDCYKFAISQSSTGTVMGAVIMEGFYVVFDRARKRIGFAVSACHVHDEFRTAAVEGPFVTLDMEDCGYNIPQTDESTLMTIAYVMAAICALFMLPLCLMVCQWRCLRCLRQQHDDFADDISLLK

BACE1 [2] = target: T1, BACE1; assay: In vitro enzymatic BACE1 FRET assay; format: biochemical; details: read-out: BACE1 Enzyme IC50
Target sequence in this assay (P56817 46-501): as the sequence (P56817 46-501, species assumed) above

human recombinant BACE2 = human recombinant BACE2 (Homo sapiens (Human), UniProt Q9Y5Z0); assay: In vitro enzymatic BACE2 FRET assay; format: biochemical; details: read-out: BACE2 Enzyme IC50
Sequence of human recombinant BACE2 (Q9Y5Z0 63-518): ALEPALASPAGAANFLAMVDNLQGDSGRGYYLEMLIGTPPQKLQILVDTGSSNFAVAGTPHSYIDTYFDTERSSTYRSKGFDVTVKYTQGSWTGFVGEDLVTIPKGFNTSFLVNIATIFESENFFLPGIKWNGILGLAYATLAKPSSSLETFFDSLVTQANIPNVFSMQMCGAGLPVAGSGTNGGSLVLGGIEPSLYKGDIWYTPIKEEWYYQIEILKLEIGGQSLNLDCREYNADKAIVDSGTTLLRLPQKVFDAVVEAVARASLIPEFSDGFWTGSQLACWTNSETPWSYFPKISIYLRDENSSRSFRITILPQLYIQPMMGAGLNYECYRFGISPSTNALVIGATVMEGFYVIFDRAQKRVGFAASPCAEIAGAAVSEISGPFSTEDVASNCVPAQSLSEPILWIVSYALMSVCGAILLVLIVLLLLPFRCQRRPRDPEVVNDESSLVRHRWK

Sequence of Cathepsin D (CatD) (P07339 65-412, species assumed): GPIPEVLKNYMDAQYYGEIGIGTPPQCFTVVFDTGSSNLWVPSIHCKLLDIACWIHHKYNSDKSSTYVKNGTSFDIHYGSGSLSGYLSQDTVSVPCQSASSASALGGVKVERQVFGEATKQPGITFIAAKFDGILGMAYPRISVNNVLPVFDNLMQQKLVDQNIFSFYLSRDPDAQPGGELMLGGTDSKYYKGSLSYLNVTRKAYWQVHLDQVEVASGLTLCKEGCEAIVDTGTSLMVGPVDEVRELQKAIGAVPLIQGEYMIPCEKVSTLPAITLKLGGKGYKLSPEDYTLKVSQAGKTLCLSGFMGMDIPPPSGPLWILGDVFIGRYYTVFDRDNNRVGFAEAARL

Row | Structure (SMILES) | IC50 (Cathepsin D (CatD)) [nM] | IC50 (BACE1 [1]) [nM] | IC50 (BACE1 [2]) [nM] | IC50 (human recombinant BACE2) [nM]
1 | CC1(C)C(N)=N[C@](C)(c2cc(/C=C(\F)c3cnc(OCC4CCC4)cn3)ccc2F)CS1(=O)=O [Example 145, (R,Z)-5-amino-3-(5-(2-(5-(cyclobutylmethoxy)pyrazin-2-yl)-2-fluorovinyl)-2-fluorophenyl)-3,6,6-trimethyl-3,6-dihydro-2H-1,4-thiazine 1,1-dioxide] | 27500 | 518 | 58 | 107
2 | C#CCOc1cnc(/C(F)=C/c2ccc(F)c([C@]3(CF)CS(=O)(=O)C(C)(C)C(N)=N3)c2)cn1 [Example 190, (S,Z)-5-amino-3-(2-fluoro-5-(2-fluoro-2-(5-(prop-2-yn-1-yloxy)pyrazin-2-yl)vinyl)phenyl)-3-(fluoromethyl)-6,6-dimethyl-3,6-dihydro-2H-1,4-thiazine 1,1-dioxide] | 104000 | 74 | 6 | 274
3 | C#CCOc1cnc(/C(F)=C/c2ccc(F)c([C@@]3(C)N=C(N)[C@@]4(CF)CC[C@@H]3S4(=O)=O)c2)cn1 [Example 108, (1R,4R,5S)-2-amino-4-(2-fluoro-5-((Z)-2-fluoro-2-(5-(prop-2-yn-1-yloxy)pyrazin-2-yl)vinyl)phenyl)-1-(fluoromethyl)-4-methyl-8-thia-3-azabicyclo[3.2.1]oct-2-ene 8,8-dioxide] | 145000 | 6 | 3 | 57
4 | CC(C)(C#N)COc1cnc(/C(F)=C/c2ccc(F)c([C@]3(C)CS(=O)(=O)C(C)(C)C(N)=N3)c2)cn1 [Example 153, (R,Z)-3-((5-(2-(3-(5-amino-3,6,6-trimethyl-1,1-dioxido-3,6-dihydro-2H-1,4-thiazin-3-yl)-4-fluorophenyl)-1-fluorovinyl)pyrazin-2-yl)oxy)-2,2-dimethylpropanenitrile] | 249000 | 2180 | 636 | 1060
5 | CC1(C)C(N)=N[C@](C)(c2cc(/C=C(\F)c3cc4c(cn3)OCCO4)ccc2F)[C@@H](F)S1(=O)=O (single isomer, unassigned) [Example 213] | 172000 | 3580 | 626 | 683
6 | CN1C(N)=N[C@](C)(c2cc(/C=C(\F)c3ccc(C#N)cn3)ccc2F)CS1(=O)=O [Example 106, (R,Z)-6-(2-(3-(3-amino-2,5-dimethyl-1,1-dioxido-5,6-dihydro-2H-1,2,4-thiadiazin-5-yl)-4-fluorophenyl)-1-fluorovinyl)nicotinonitrile] | 182000 | 2 | 1 | 31
7 | Cc1nnc(COc2cnc(/C(F)=C/c3ccc(F)c([C@]4(C)CS(=O)(=O)N(C)C(N)=N4)c3)cn2)o1 [Example 173, (R,Z)-3-amino-5-(2-fluoro-5-(2-fluoro-2-(5-((5-methyl-1,3,4-oxadiazol-2-yl)methoxy)pyrazin-2-yl)vinyl)phenyl)-2,5-dimethyl-5,6-dihydro-2H-1,2,4-thiadiazine 1,1-dioxide] | 78100 | 9 | 7 | 103
8 | C#CCOc1cnc(/C(F)=C/c2ccc(F)c([C@]3(C)CS(=O)(=O)C4(CCC4)C(N)=N3)c2)cn1 [Example 149, (R,Z)-9-amino-7-(2-fluoro-5-(2-fluoro-2-(5-(prop-2-yn-1-yloxy)pyrazin-2-yl)vinyl)phenyl)-7-methyl-5-thia-8-azaspiro[3.5]non-8-ene 5,5-dioxide] | 110000 | 3 | 2 | 51
9 | COc1cnc(/C(F)=C/c2ccc(F)c([C@@]3(C)N=C(N)[C@@]4(CF)CC[C@@H]3S4(=O)=O)c2)cn1 [Example 121, (1R,4R,5S)-2-amino-4-(2-fluoro-5-((Z)-2-fluoro-2-(5-methoxypyrazin-2-yl)vinyl)phenyl)-1-(fluoromethyl)-4-methyl-8-thia-3-azabicyclo[3.2.1]oct-2-ene 8,8-dioxide] | > 400000 | 191 | 98 | 180
10 | CC1(C)C(N)=N[C@](C)(c2cc(/C=C(\F)c3cnc(OCC4CCCC4)cn3)ccc2F)CS1(=O)=O [Example 144, (R,Z)-5-amino-3-(5-(2-(5-(cyclopentylmethoxy)pyrazin-2-yl)-2-fluorovinyl)-2-fluorophenyl)-3,6,6-trimethyl-3,6-dihydro-2H-1,4-thiazine 1,1-dioxide] | 17000 | 1070 | 30 | 143
11 | CN1C(N)=N[C@](C)(c2cc(/C=C(\F)c3cnc(OCC#CCF)cn3)ccc2F)CS1(=O)=O [Example 254, (R,Z)-3-amino-5-(2-fluoro-5-(2-fluoro-2-(5-((4-fluorobut-2-yn-1-yl)oxy)pyrazin-2-yl)vinyl)phenyl)-2,5-dimethyl-5,6-dihydro-2H-1,2,4-thiadiazine 1,1-dioxide] | 28300 | 21 | 7 | 52
12 | CN1C(N)=N[C@](C)(c2cc(/C=C(\F)c3cnc(OCC(F)(F)F)cn3)ccc2F)CS1(=O)=O [Example 117, (R,Z)-3-amino-5-(2-fluoro-5-(2-fluoro-2-(5-(2,2,2-trifluoroethoxy)pyrazin-2-yl)vinyl)phenyl)-2,5-dimethyl-5,6-dihydro-2H-1,2,4-thiadiazine 1,1-dioxide] | 29100 | 148 | 23 | 186
13 | CC1(C)C(N)=N[C@](C)(c2cc(/C=C(\F)c3ncc(C(F)(F)F)cc3Cl)ccc2F)CS1(=O)=O [Example 264, (R,Z)-5-amino-3-(5-(2-(3-chloro-5-(trifluoromethyl)pyridin-2-yl)-2-fluorovinyl)-2-fluorophenyl)-3,6,6-trimethyl-3,6-dihydro-2H-1,4-thiazine 1,1-dioxide] | 117000 | 75 | 10 | 38
14 | CN1C(N)=N[C@](C)(c2cc(/C=C(\F)c3cc4ccccc4cn3)ccc2F)CS1(=O)=O [Example 259, (5R)-5-(2-fluoro-5-((Z)-2-fluoro-2-(3-isoquinolinyl)ethenyl)phenyl)-2,5-dimethyl-5,6-dihydro-2H-1,2,4-thiadiazin-3-amine 1,1-dioxide] | 116000 | 1120 | 272 | 41
15 | C[C@]1(c2cc(/C=C(\F)c3cnc(OCC(F)(F)C(F)F)cn3)ccc2F)N=C(N)[C@@]2(CF)CC[C@@H]1S2(=O)=O [Example 120, (1R,4R,5S)-2-amino-4-(2-fluoro-5-((Z)-2-fluoro-2-(5-(2,2,3,3-tetrafluoropropoxy)pyrazin-2-yl)vinyl)phenyl)-1-(fluoromethyl)-4-methyl-8-thia-3-azabicyclo[3.2.1]oct-2-ene 8,8-dioxide] | > 400000 | 542 | 37 | 258
16 | CC#CCOc1cnc(/C(F)=C/c2ccc(F)c([C@]3(CF)CS(=O)(=O)C(C)(C)C(N)=N3)c2)cn1 [Example 194, (S,Z)-5-amino-3-(5-(2-(5-(but-2-yn-1-yloxy)pyrazin-2-yl)-2-fluorovinyl)-2-fluorophenyl)-3-(fluoromethyl)-6,6-dimethyl-3,6-dihydro-2H-1,4-thiazine 1,1-dioxide] | 49400 | 55 | 7 | 181
